{"source": "patent US10143668B2", "about": "“Hydroxy-substituted amino and ammonium derivatives and their medical use” (GRI BIO, INC., priority 2011, dated 2018)", "tested_on": "DTH response in mice", "format": "in vivo", "details": "for Inhibition of mouse ear swelling: 24 h after challenge", "procedure": "The anti-inflammatory and anti-allergic effects of compound 1a was assessed in a mouse model of skin delayed-type hypersensitivity (DTH) reactions and compared to a vehicle control and to the reference drug, dexamethasone. DTH reactions are antigen-specific cell-mediated immune responses, driven primarily by T helper type 1 (Th1) cells, similar to the tuberculin immunization response. The immune reaction induced by an ovalbumin challenge to animals previously sensitized with ovalbumin in Complete Freund's Adjuvant, is characterized by swelling (edema) at the site of challenge, e.g. the mouse ear. Dexamethasone, an anti-inflammatory steroid, reduces cell-mediated immune responses and was employed to validate the responsiveness of the assay to pharmacological treatment.\nFemale BALB/cJW mice were bred at the University of Lodz, Lodz, Poland and housed in groups of 8 in makrolon cages with a 12 h light-dark cycle. Mice were given free access to food (Agropol S. j., Motycz, Poland) and water.\nSensitization: The protein antigen, ovalbumin, was reconstituted in PBS at 4 mg/ml. An ovalbumin-CFA emulsion was prepared by mixing the protein solution with the CFA suspension at a ratio of 1:1, using two Luer-lock syringes. The emulsion was tested by putting a drop of emulsion onto PBS; if the emulsion remained as a tight droplet on the PBS, the emulsion was deemed ready. Mice were sensitized by subcutaneously injecting 25 μL of emulsion into each side of the tail (100 μg ovalbumin per mouse).\nChallenge: On the sixth day after sensitization, DTH was elicited by challenging animals subcutaneously (gauge 30 needle, B. Braun Melsungen, Melsungen, Germany) in the left ears with 10 μL of a 1% suspension of heat-aggregated ovalbumin (HOVA) (100 μg ovalbumin per mouse). The right ears were administered subcutaneously with PBS and served to determine the individual differences in ear thicknesses. HOVA was prepared by heating a 5% solution of ovalbumin in saline for 1 h at 80° C. with occasional swirling. After cooling to room temperature and centrifugation (400 g, 10 min at 4° C.), the pellet was washed twice with saline, resuspended at 2% in PBS and aliquots stored at −30° C. Before injection, HOVA was diluted with an equal volume of PBS and sonicated. Ear thickness was measured with a precise spring-loaded caliper (Art. No. 7309, Mitutoyo, Kawasaki, Japan) before challenge, and 24 h after challenge.\nSensitization, challenge and ear thickness measurement were performed under anesthesia (ketamine 80 mg/kg plus xylazine 8 mg/kg, intraperitoneally).\nThe anti-inflammatory effects of compound 1a were compared to a vehicle control (0.5% methyl cellulose solution) and to the reference drug, dexamethasone. Test compound was given at 25 or 100 mg/kg orally by gavage (Art. No. 432093, Harvard Apparatus GmbH, March-Hugstetten, Germany) 16 h and 3 h before sensitization and then twice daily with the final dose given 3 h prior to ear challenge (a total of 14 administrations). Dexamethasone was given at 0.1 or 1 mg/kg orally by gavage 3 h before sensitization and once daily with the final dose given 3 h prior to antigen challenge (a total of 7 administrations). All administrations were given in a volume of 10 mL/kg.\nTo account for individual variability, the increase in right ear thickness, before and 24 h after administration of PBS, was subtracted from the HOVA-induced increase in left ear thickness. […]\nMean and standard deviation (SD) were calculated from individual ear edema values. […]", "note": "Like-named read-outs stand apart in the source and are kept apart here.", "data": [{"smiles": "CCCCCCCCCCCCCC[N+](C)(C)CC(=O)N(C)C[C@H](O)[C@@H](O)[C@H](O)[C@H](O)CO", "note": "[Compound 1a, N-(2-(Dimethyl(tetradecyl)ammonio)acetyl)-N-methyl-D-glucamine chloride]", "values": [{"measurement": "Inhibition of mouse ear swelling", "setting": "25 mg/kg orally twice daily", "value": 43, "unit": "%"}, {"measurement": "Inhibition of mouse ear swelling", "setting": "100 mg/kg orally twice daily", "value": 50, "unit": "%"}, {"measurement": "inhibition relative to that of the high dose of dexamethasone", "setting": "25 or 100 mg/kg orally twice daily vs dexamethasone 1 mg/kg", "value": "up to 94%"}]}]}
